Legend:
[1] = ref Ferreiro et al. 2002; cited from earlier work
Salmonella typhimurium = conditions: ref Rosenkranz Jr et al. 1976; cited from earlier work
[2] = tested on: Bloodstream trypomastigotes of T. cruzi (Y strain); test: In vitro trypanocidal assay; format: cell-based; conditions: Trypanosoma cruzi, 24 h, read-out: IC50/24 h
[3] = tested on: DNA damage in human whole blood cells; test: In vitro alkaline single cell gel electrophoresis; format: cell-based; conditions: positive control, 160 µM

Cc1ncc([N+](=O)[O-])n1CC(O)CCl (centres unmarked) [Compound 4, ornidazole]
Mutagenicity (in words) [1]: known to be a mutagenic agent

O=C(Cn1ccnc1[N+](=O)[O-])NCc1ccccc1 [Compound 8, benznidazole]
Ames test result (Salmonella typhimurium): positive | IC50 [2]: 9.7 ± 2.4 µM

COS(C)(=O)=O [MMS, Methyl methane-sulfonate]
TAU value (total DNA damage score) [3]: 454.3 ± 9.2 TAU | TAU value (total DNA damage score) ([3]; listed as methyl methane-sulfonate): MI: mutagenicity inde; NA: not applicable; TAU: total arbitrary units for the positive control, methyl methane-sulfonate value was 454.3 ± 9.2.

Reference: paper PMC4501412 (Memórias do Instituto Oswaldo Cruz, 2015)
